System: 782815-120-R-J1-PDC complex spheroid viability
Assay: Anticancer human tumor 782815-120-R-J1-PDC patient-derived colon adenocarcinoma cell line growth inhibition [RAS]
Details: for IC50: curve of first compound; for viability, T/C: stronger effect = lower value
Summary of the method: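 Multi-cell-type spheroids: tumor cells plus HUVEC endothelial cells and mesenchymal stem cells. RAS-pathway inhibitors were combined with targeted agents, each dosed in half-log steps down from clinical Cmax, or from 10 microM when Cmax was unknown.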

[1] = second compound 0.00316 µM, first compound 0.000949 µM
[2] = second compound 0.00316 µM, first compound 0.003 µM
[3] = second compound 0.00316 µM, first compound 0.00949 µM
[4] = second compound 0.00316 µM, first compound 0.03 µM
[5] = second compound 0.00316 µM, first compound 0.0949 µM
[6] = second compound 0.00316 µM, first compound 0.3 µM
[7] = second compound 0.01 µM, first compound 0.000949 µM
[8] = second compound 0.01 µM, first compound 0.003 µM
[9] = second compound 0.01 µM, first compound 0.00949 µM
[10] = second compound 0.01 µM, first compound 0.03 µM
[11] = second compound 0.01 µM, first compound 0.0949 µM
[12] = second compound 0.01 µM, first compound 0.3 µM
[13] = second compound 0.0316 µM, first compound 0.000949 µM
[14] = second compound 0.0316 µM, first compound 0.003 µM
[15] = second compound 0.0316 µM, first compound 0.00949 µM
[16] = second compound 0.0316 µM, first compound 0.03 µM
[17] = second compound 0.0316 µM, first compound 0.0949 µM
[18] = second compound 0.0316 µM, first compound 0.3 µM
[19] = second compound 0.1 µM, first compound 0.000949 µM
[20] = second compound 0.1 µM, first compound 0.003 µM
[21] = second compound 0.1 µM, first compound 0.00949 µM
[22] = second compound 0.1 µM, first compound 0.03 µM
[23] = second compound 0.1 µM, first compound 0.0949 µM
[24] = second compound 0.1 µM, first compound 0.3 µM
[25] = second compound 0.316 µM, first compound 0.000949 µM
[26] = second compound 0.316 µM, first compound 0.003 µM
[27] = second compound 0.316 µM, first compound 0.00949 µM
[28] = second compound 0.316 µM, first compound 0.03 µM
[29] = second compound 0.316 µM, first compound 0.0949 µM
[30] = second compound 0.316 µM, first compound 0.3 µM
[31] = second compound 1 µM, first compound 0.000949 µM
[32] = second compound 1 µM, first compound 0.003 µM
[33] = second compound 1 µM, first compound 0.00949 µM
[34] = second compound 1 µM, first compound 0.03 µM
[35] = second compound 1 µM, first compound 0.0949 µM
[36] = second compound 1 µM, first compound 0.3 µM
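Also: spheroids exposed to compounds for 7 days before reading.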
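For viability, T/C in this document: 100% = DMSO vehicle control viability.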

SMILES: CC(=O)OC12COC1CC(O)C1(C)C(=O)C(O)C3=C(C)C(OC(=O)C(O)C(NC(=O)OC(C)(C)C)c4ccccc4)CC(O)(C(OC(=O)c4ccccc4)C21)C3(C)C (stereo unspecified) + C=CC(=O)N1CCN(c2nc(OCC3CCCN3C)nc3c(F)c(-c4nc(N)cc(C)c4C(F)(F)F)c(Cl)cc23)C(C)C1
- IC50 (second compound 0.00316 µM): < 31.6 nM
- IC50 (second compound 0.01 µM): < 31.6 nM
- IC50 (second compound 0.0316 µM): < 31.6 nM
- IC50 (second compound 0.1 µM): < 31.6 nM
- IC50 (second compound 0.316 µM): < 31.6 nM
- IC50 (second compound 1 µM): < 31.6 nM
- viability, T/C (second compound 0.00316 µM, first compound 0.0316 µM): 33.6%
- viability, T/C (second compound 0.00316 µM, first compound 0.1 µM): 31.1%
- viability, T/C (second compound 0.00316 µM, first compound 0.316 µM): 25.6%
- viability, T/C (second compound 0.00316 µM, first compound 1 µM): 23.6%
- viability, T/C (second compound 0.00316 µM, first compound 3.16 µM): 28.3%
- viability, T/C (second compound 0.00316 µM, first compound 10 µM): 33.2%
- viability, T/C (second compound 0.01 µM, first compound 0.0316 µM): 34.1%
- viability, T/C (second compound 0.01 µM, first compound 0.1 µM): 32%
- viability, T/C (second compound 0.01 µM, first compound 0.316 µM): 25.7%
- viability, T/C (second compound 0.01 µM, first compound 1 µM): 22.3%
- viability, T/C (second compound 0.01 µM, first compound 3.16 µM): 25%
- viability, T/C (second compound 0.01 µM, first compound 10 µM): 34.1%
- viability, T/C (second compound 0.0316 µM, first compound 0.0316 µM): 40%
- viability, T/C (second compound 0.0316 µM, first compound 0.1 µM): 24.2%
- viability, T/C (second compound 0.0316 µM, first compound 0.316 µM): 23.6%
- viability, T/C (second compound 0.0316 µM, first compound 1 µM): 27.6%
- viability, T/C (second compound 0.0316 µM, first compound 3.16 µM): 23.6%
- viability, T/C (second compound 0.0316 µM, first compound 10 µM): 34.7%
- viability, T/C (second compound 0.1 µM, first compound 0.0316 µM): 36.8%
- viability, T/C (second compound 0.1 µM, first compound 0.1 µM): 30.4%
- viability, T/C (second compound 0.1 µM, first compound 0.316 µM): 20.3%
- viability, T/C (second compound 0.1 µM, first compound 1 µM): 22.9%
- viability, T/C (second compound 0.1 µM, first compound 3.16 µM): 25%
- viability, T/C (second compound 0.1 µM, first compound 10 µM): 29.2%
- viability, T/C (second compound 0.316 µM, first compound 0.0316 µM): 37.4%
- viability, T/C (second compound 0.316 µM, first compound 0.1 µM): 27.4%
- viability, T/C (second compound 0.316 µM, first compound 0.316 µM): 25%
- viability, T/C (second compound 0.316 µM, first compound 1 µM): 23.5%
- viability, T/C (second compound 0.316 µM, first compound 3.16 µM): 28.4%
- viability, T/C (second compound 0.316 µM, first compound 10 µM): 29.6%
- viability, T/C (second compound 1 µM, first compound 0.0316 µM): 38.1%
- viability, T/C (second compound 1 µM, first compound 0.1 µM): 26.9%
- viability, T/C (second compound 1 µM, first compound 0.316 µM): 27.4%
- viability, T/C (second compound 1 µM, first compound 1 µM): 23.6%
- viability, T/C (second compound 1 µM, first compound 3.16 µM): 27.5%
- viability, T/C (second compound 1 µM, first compound 10 µM): 33.3%

SMILES: CC1(C)CCC(Nc2ncc(C(F)(F)F)c(-c3c[nH]c4c(P(C)(C)=O)c(C#N)ccc34)n2)CN1 (stereo unspecified) + C=CC(=O)N1CCN(c2nc(OCC3CCCN3C)nc3c(F)c(-c4nc(N)cc(C)c4C(F)(F)F)c(Cl)cc23)C(C)C1
- IC50 (second compound 0.00316 µM): > 300 nM
- IC50 (second compound 0.01 µM): > 300 nM
- IC50 (second compound 0.0316 µM): > 300 nM
- IC50 (second compound 0.1 µM): > 300 nM
- IC50 (second compound 0.316 µM): > 300 nM
- IC50 (second compound 1 µM): 270 nM
- viability, T/C [1]: 106%
- viability, T/C [2]: 113%
- viability, T/C [3]: 88.4%
- viability, T/C [4]: 63.7%
- viability, T/C [5]: 68.8%
- viability, T/C [6]: 58.3%
- viability, T/C [7]: 97.7%
- viability, T/C [8]: 101%
- viability, T/C [9]: 88.7%
- viability, T/C [10]: 72.9%
- viability, T/C [11]: 49.5%
- viability, T/C [12]: 59.6%
- viability, T/C [13]: 107%
- viability, T/C [14]: 103%
- viability, T/C [15]: 90.8%
- viability, T/C [16]: 77.2%
- viability, T/C [17]: 57.8%
- viability, T/C [18]: 52.3%
- viability, T/C [19]: 107%
- viability, T/C [20]: 104%
- viability, T/C [21]: 88.7%
- viability, T/C [22]: 68.2%
- viability, T/C [23]: 55.5%
- viability, T/C [24]: 56.8%
- viability, T/C [25]: 103%
- viability, T/C [26]: 97.2%
- viability, T/C [27]: 90.9%
- viability, T/C [28]: 67.2%
- viability, T/C [29]: 77.3%
- viability, T/C [30]: 55.3%
- viability, T/C [31]: 120%
- viability, T/C [32]: 97.1%
- viability, T/C [33]: 85.8%
- viability, T/C [34]: 63.3%
- viability, T/C [35]: 65.2%
- viability, T/C [36]: 53.3%

SMILES: CCc1c2c(nc3ccc(O)cc13)-c1cc3c(c(=O)n1C2)COC(=O)[C@]3(O)CC + C=CC(=O)N1CCN(c2nc(OCC3CCCN3C)nc3c(F)c(-c4nc(N)cc(C)c4C(F)(F)F)c(Cl)cc23)C(C)C1
- IC50 (second compound 0.00316 µM): 4.1 nM
- IC50 (second compound 0.01 µM): 3.93 nM
- IC50 (second compound 0.0316 µM): 4.6 nM
- IC50 (second compound 0.1 µM): 3.92 nM
- IC50 (second compound 0.316 µM): 4.07 nM
- IC50 (second compound 1 µM): 4.39 nM
- viability, T/C [1]: 91.2%
- viability, T/C [2]: 60.4%
- viability, T/C [3]: 22.1%
- viability, T/C [4]: 9.72%
- viability, T/C [5]: 3.7%
- viability, T/C [6]: 1.61%
- viability, T/C [7]: 97.2%
- viability, T/C [8]: 58.9%
- viability, T/C [9]: 21.3%
- viability, T/C [10]: 9.84%
- viability, T/C [11]: 3.15%
- viability, T/C [12]: 1.53%
- viability, T/C [13]: 99.2%
- viability, T/C [14]: 67.4%
- viability, T/C [15]: 20%
- viability, T/C [16]: 9.96%
- viability, T/C [17]: 3.02%
- viability, T/C [18]: 1.51%
- viability, T/C [19]: 92.8%
- viability, T/C [20]: 59.4%
- viability, T/C [21]: 19.2%
- viability, T/C [22]: 8.28%
- viability, T/C [23]: 4.23%
- viability, T/C [24]: 1.49%
- viability, T/C [25]: 100%
- viability, T/C [26]: 60.7%
- viability, T/C [27]: 20.4%
- viability, T/C [28]: 9.08%
- viability, T/C [29]: 3.9%
- viability, T/C [30]: 1.28%
- viability, T/C [31]: 99.3%
- viability, T/C [32]: 65%
- viability, T/C [33]: 19.3%
- viability, T/C [34]: 10.1%
- viability, T/C [35]: 3.83%
- viability, T/C [36]: 1.36%
